Assay results reported in publication PMC2810717 (Biochemistry, 2010).

Assays:
spermine oxidase (SMO) [1] = molecular target: T1, spermine oxidase (SMO) (Homo sapiens, UniProt Q9NWM0); format: biochemical
spermine oxidase (SMO) [2] = molecular target: T1, spermine oxidase (SMO); test: biochemical

T1 sequence (Q9NWM0 whole entry): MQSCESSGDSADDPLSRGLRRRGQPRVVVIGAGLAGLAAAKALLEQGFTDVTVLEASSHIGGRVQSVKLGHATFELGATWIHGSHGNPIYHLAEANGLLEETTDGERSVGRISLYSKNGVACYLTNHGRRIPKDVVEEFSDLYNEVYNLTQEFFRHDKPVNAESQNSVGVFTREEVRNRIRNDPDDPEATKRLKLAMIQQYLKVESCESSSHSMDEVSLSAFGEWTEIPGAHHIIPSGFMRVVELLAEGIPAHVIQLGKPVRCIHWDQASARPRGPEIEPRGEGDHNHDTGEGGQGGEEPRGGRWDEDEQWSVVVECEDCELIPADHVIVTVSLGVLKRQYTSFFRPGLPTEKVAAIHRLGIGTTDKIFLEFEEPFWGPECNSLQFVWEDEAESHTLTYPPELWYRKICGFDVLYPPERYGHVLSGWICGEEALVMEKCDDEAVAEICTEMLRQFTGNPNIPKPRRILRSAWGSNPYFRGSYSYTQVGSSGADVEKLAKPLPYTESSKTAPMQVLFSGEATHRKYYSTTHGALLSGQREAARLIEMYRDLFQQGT

Kd (spermine oxidase (SMO) [2]) [µM]	SMILES	Ki (spermine oxidase (SMO) [1]) [µM]
	c1ccc(CNCCCCNCc2ccccc2)cc1 [DBDB, N,N’-dibenzylbutane-1,4-diamine]	320 ± 80
	NCCCCNCCCN [spermidine]	550 ± 20
48 ± 8.2	NCCCNCCCCNCCCN [spermine]	
